Assay results reported in PubChem BioAssay (NCI).
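Cells were grown in 96-well plates and exposed to each compound for 48 hours at five concentrations; endpoints were interpolated linearly between bracketing concentrations, or set to the highest concentration if not reached. The concentration for full growth arrest is given as TGI.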 *1 amine or outer side, *2 acyl side, *3 side chain or, on linkers, in order; H or OH if unused. Where a SMILES comes first, the peptide text is derived from it. [ ]: non-standard residue; d: D form. The star is where a group is joined. X31 = CC(=O)N(C)SCC(N[*:1])C(=O)[*:2]; Cbz = O=C(OCc1ccccc1)*; Bn = c1ccc(C*)cc1; For = O=C*

Columns and labels:
Test in all cases: growth of human tumour cells (NCI), 48 h
CCRF-CEM leukemia = test system: CCRF-CEM leukemia
MALME-3M melanoma = test system: MALME-3M melanoma
OVCAR-8 ovarian = test system: OVCAR-8 ovarian
T-47D breast = test system: T-47D breast
NCI/ADR-RES ovarian = test system: NCI/ADR-RES ovarian
786-0 renal = test system: 786-0 renal
XF 498 CNS = test system: XF 498 CNS
DMS 114 small cell lung = test system: DMS 114 small cell lung
M19-MEL melanoma = test system: M19-MEL melanoma
SNB-78 CNS = test system: SNB-78 CNS
LXFL 529 NSCLC = test system: LXFL 529 NSCLC
HOP-18 NSCLC = test system: HOP-18 NSCLC
DMS 273 small cell lung = test system: DMS 273 small cell lung
KM20L2 colon = test system: KM20L2 colon
DLD-1 colon = test system: DLD-1 colon

Row | SMILES | TGI (CCRF-CEM leukemia) [µM] | TGI (MALME-3M melanoma) [µM] | TGI (OVCAR-8 ovarian) [µM] | TGI (T-47D breast) [µM] | TGI (NCI/ADR-RES ovarian) [µM] | TGI (786-0 renal) [µM] | TGI (XF 498 CNS) [µM] | TGI (DMS 114 small cell lung) [µM] | TGI (M19-MEL melanoma) [µM] | TGI (SNB-78 CNS) [µM] | TGI (LXFL 529 NSCLC) [µM] | TGI (HOP-18 NSCLC) [µM] | TGI (DMS 273 small cell lung) [µM] | TGI (KM20L2 colon) [µM] | TGI (DLD-1 colon) [µM]
1 | O=c1c2c(oc3ccccc13)-c1ccccc1OC2 | > 100 | > 100 | > 100 | > 100 | > 100 | 64.2 | – | – | – | – | – | – | – | – | –
2 | O=C(CSc1nnc(-c2ccc(N=Cc3ccc(Cl)cc3)cc2)o1)Nc1ccccc1[N+](=O)[O-] | > 100 | > 100 | > 100 | – | – | > 100 | > 100 | > 100 | > 100 | > 100 | > 100 | > 100 | > 100 | > 100 | –
3 | C/C(=N\NS(=O)(=O)c1ccc(C)cc1)C(CN1CCCCC1)C(c1ccccc1)c1c(O)c2ccccc2oc1=O (configuration not stated) | > 100 | > 100 | > 100 | – | – | > 100 | > 100 | – | – | > 100 | > 100 | > 100 | – | > 100 | > 100
4 | CCOC(=O)P(=O)(O)c1ccc(N(C)Cc2ccccc2)cc1 | > 100 | > 100 | > 100 | > 100 | > 100 | > 100 | – | – | – | – | – | – | – | – | –
5 | CCCCCCCCCCCCCCCCCCNC(=O)C(N)Cc1ccc(OCc2ccccc2)cn1 (configuration not stated) | 78.9 | 42.9 | 37.3 | 50.7 | 38.4 | 41.6 | – | – | – | – | – | – | – | – | –
6 | CCOC(CN(C)C(=O)Nc1cccc2ccccc12)OCC | > 10 | > 10 | > 10 | > 10 | > 10 | > 10 | – | – | – | – | – | – | – | – | –
7 | O=C(O)c1nc2cc(C(F)(F)F)ccc2nc1Nc1ccc(F)cc1 | > 100 | 50.9 | 81.7 | > 100 | > 100 | 66 | – | – | – | – | – | – | – | – | –
8 | O=C1c2cc(Cl)ccc2-n2cnnc2C2CSCN12 (configuration not stated) | > 100 | > 100 | > 100 | > 100 | > 100 | > 100 | – | – | – | – | – | – | – | – | –
9 | O=C(Nc1ccc(Cl)cc1)NS(=O)(=O)c1coc2cc(F)ccc2c1=O | > 100 | > 100 | > 100 | > 100 | > 100 | > 100 | – | – | – | – | – | – | – | – | –
10 | CC(=O)N(C)SCC(NC(=O)C(Cc1ccccc1)NC(=O)OCc1ccccc1)C(=O)NC(Cc1ccccc1)C(=O)NC(Cc1cn(C=O)c2ccccc12)C(=O)NC(CCCCNC(=O)OCc1ccccc1)C(=O)NC(C(=O)NC(CSN(C)C(C)=O)C(=O)NC(C(N)=O)C(C)OCc1ccccc1)C(C)OCc1ccccc1 (configuration not stated) (Cbz-F[X31]FW(For)K(Cbz)T(Bn)[X31]T(Bn)-NH2; configuration not given here) | > 100 | > 100 | > 100 | > 100 | > 100 | > 100 | – | – | – | – | – | – | – | – | –
11 | COC(=O)c1ccc(C)cc1CC1Cc2cc(C)ccc2C1=O (configuration not stated) | > 100 | > 100 | > 100 | > 100 | > 100 | > 100 | – | – | – | – | – | – | – | – | –
12 | CC(=O)NC1C(OCc2ccccc2)OC(CO)C(O)C1OC(C)C(=O)NC(C(=O)N[C@@H](CCC(=O)NCCNCCNc1c2ccccc2nc2cccc([N+](=O)[O-])c12)C(N)=O)C(C)C (some centres not stated) | > 100 | > 100 | > 100 | > 100 | > 100 | 76.9 | – | – | – | – | – | – | – | – | –
13 | C=CCNC(=O)NC(=O)CSC1=NNC2(C(=O)N1)c1ccccc1-c1ccccc12 | > 10 | > 10 | > 10 | > 10 | > 10 | > 10 | – | – | – | – | – | – | – | – | –
14 | Cc1cc2c(cc1-c1cc3c(cc1C)C(C(C)C)=C(O)C(=O)/C3=C\Nc1c3ccccc3nc3ccccc13)/C(=C/Nc1c3ccccc3nc3ccccc13)C(=O)C(O)=C2C(C)C | 25.5 | 10.1 | 12.8 | 26.8 | 12.9 | 14.8 | – | – | – | – | – | – | – | – | –
15 | Clc1ccc(NCc2nnc(CCCCCCCCc3nnc(CNc4ccc(Cl)cc4)o3)o2)cc1 | > 100 | > 100 | > 100 | > 100 | > 100 | > 100 | – | – | – | – | – | – | – | – | –
16 | CCOc1cc(NC(C)=O)ccc1C(=O)NN1C(=O)C(Cl)C1c1ccccc1 (configuration not stated) | 38.6 | 25.2 | > 100 | 35.4 | 88.5 | 28.1 | – | – | – | – | – | – | – | – | –
17 | CC(=O)C(=C(c1ccccc1)c1ccccc1)c1ccccc1 | > 100 | > 100 | > 100 | > 100 | > 100 | > 100 | – | – | – | – | – | – | – | – | –
18 | COc1ccc(Nc2nnc(-c3nsc4ccccc34)s2)cc1 | > 100 | – | > 100 | > 100 | > 100 | 9.77 | – | > 100 | > 100 | > 100 | > 100 | 2.66 | > 100 | > 100 | –
19 | CC1=NN(C(=O)c2ccccc2O)C(=O)/C1=C/c1ccco1 | > 100 | 73.1 | 97.9 | > 100 | 85.3 | > 100 | > 100 | 6.94 | 20 | > 100 | > 100 | – | – | 81 | > 100
20 | CNc1ncnc2c1ncn2C1C=CC(COS(N)(=O)=O)C1 (configuration not stated) | > 100 | > 100 | > 100 | > 100 | > 100 | > 100 | – | – | – | – | – | – | – | – | –
21 | [N-]=[N+]=Nc1ccccc1C(=O)N1C(=O)c2ccccc2C(=O)N(C(=O)c2ccccc2N=[N+]=[N-])c2ccccc21 | 84.6 | > 100 | > 100 | > 100 | > 100 | > 100 | – | – | – | – | – | – | – | – | –
22 | Cn1c2ccccc2n2c(N=O)c(-c3ccccc3)nc12 | > 100 | > 100 | > 100 | > 100 | > 100 | > 100 | – | – | – | – | – | – | – | – | –
23 | CC(C)Cn1cnc2c(NCC(C)O)nc3ccccc3c21 (configuration not stated) | > 100 | > 100 | > 100 | > 100 | > 100 | > 100 | – | – | – | – | – | – | – | – | –
24 | Cc1ccc2c(c1)[nH]c(=S)n2/C=C1\C(=O)Oc2ccccc2C1=O | > 100 | > 100 | > 100 | > 100 | > 100 | > 100 | – | – | – | – | – | – | – | – | –
